How the values were obtained:
Format in all cases: cell-based
A-431 cells = assay: MTT method, proliferation of A-431 cells after photosensitizer and red light irradiation
Description: The MTT method is a method for detecting cell survival and growth. The detection principle of it is that a succinate dehydrogenase in mitochondria of living cells can reduce exogenous MTTs to water-insoluble blue-violet crystalline formazan and deposit the formazan in the cells, while dead cells have no such function. Dimethyl sulfoxide (DMSO) can dissolve the formazan in the cells, and the light absorbance value of it is measured at 490 nm wavelength with an enzyme-linked immunometric meter, which can indirectly reflect the number of living cells.
The cell line A-431 of cutaneous squamous cell carcinoma was cultured in a DMEM medium that contained 10% calf serum, added with […] of penicillin and 100 mg/L of streptomycin, and placed in a constant-temperature incubator at 37° C. and containing 5% CO2 for conventional culture. After the cells grew to confluence on the bottom of the flask, the medium was discarded, the cells were rinsed twice with a PBS solution, and then digested with 0.25% trypsin and 0.02% EDTA for 5 minutes, and then subcultured into flasks once every 2 to 3 days. The cells at the logarithmic growth phase were taken for experiment.
A-431 cells at the logarithmic growth phase were digested with trypsin, and inoculated into a six-well culture plate, and cultured in a 5% CO2 incubator at 37° C. When grew to the confluence of 80%-90%, the cells were respectively added with distilled water and 100 nM, 200 nM, 400 nM, 600 nM and 800 nM of the diglycosylated benzophenoxazine photosensitizer referred in the present invention. After incubation for 1 h, the cells were irradiated with 20 J/cm^2 of red light for 15 min. 16 h later, the survival and growth status of the cells were detected by the MTT method.

p-PP2A = assay: Western Blot of PP2A phosphorylation in A-431 cells; details: 200 to 800 nM, 20 J/cm^2 red light 15 min, Western Blot (FIG. 5)
Description: (§1) The Wnt signaling pathway mainly refers to a classic Wnt signaling pathway mediated by β-Catenin. In the absence of the Wnt signaling, GSK3β can add a phosphate group to the serine/threonine residue at the N-terminus of β-Catenin. The phosphorylated β-Catenin is covalently modified by β-TRCP ubiquitination and then degraded by a proteasome. […] Therefore, by measuring the phosphorylation statuses of GSK3β, β-Catenin and PP2A, we can directly understand whether the Wnt signaling is activated. C-myc and Cyclin D1 as protooncogenes can promote division and translation of the cells of cutaneous squamous cell carcinoma, and ultimately promote cell proliferation. By observing C-myc and Cyclin D1, we can clearly understand the inhibition effect of the photosensitizer of the present invention on proliferation of the A-431 cells. […]
(§2) A-431 cells at the logarithmic growth phase were digested with trypsin, and inoculated into a six-well culture plate, and cultured in a 5% CO2 incubator at 37° C. […] Respectively after 0.5 h and 16 h, the cells were collected to extract total protein, and the p-GSK3β, p-PP2A, p-β-catenin, C-myc, Cyclin D1 and β-Catenin in the cells were detected by the Western Blot method.

p-β-catenin = assay: Western Blot of β-catenin phosphorylation in A-431 cells; details: 100 nM and 400 to 800 nM, 20 J/cm^2 red light 15 min, Western Blot (FIG. 5)
Description: as §1, §2

β-Catenin = assay: Western Blot of β-Catenin expression in A-431 cells; details: Western Blot (FIG. 6)
Description: as §1, §2

Cyclin D1 = assay: Western Blot of Cyclin D1 expression in A-431 cells; details: Western Blot (FIG. 6)
Description: as §1, §2

p-GSK3β = assay: Western Blot of GSK3β phosphorylation in A-431 cells; details: 200 to 800 nM, 20 J/cm^2 red light 15 min, Western Blot (FIG. 5)
Description: as §1, §2

C-myc = assay: Western Blot of C-myc expression in A-431 cells; details: Western Blot (FIG. 6)
Description: as §1, §2

CCN(CC)CCC(C)(C[Se]N(CC)c1ccc2nc3c4ccccc4/c(=N\[Se]CC(C)(CN(CC)CC)ONC4C(O)C(O)C(CO)O[C@@H]4O)cc-3[se]c2c1)ONC1C(O)C(O)C(CO)O[C@@H]1O (stereo partly drawn)
proliferation of A-431 cells (A-431 cells; 600 nM and 800 nM, concluded from Western Blot results (FIG. 6)): significantly inhibit | proliferation of the A-431 cells (A-431 cells; 100-800 nM, inhibition increases with dose, 20 J/cm^2 red light 15 min, MTT 16 h later): significantly inhibit | inhibition at 0.8 µM (A-431 cells; Homo sapiens, light or radiation study, 800 nM, A-431 cells, incubation 1 h, 20 J/cm^2 red light 15 min, MTT 16 h later, read-out: proliferation inhibition effect): 80% | phosphorylation of PP2A (p-PP2A): significantly inhibit | phosphorylation of β-catenin (p-β-catenin): significantly promote | expression quantity of β-Catenin (β-Catenin; 100 to 400 nM): increased slightly | expression quantity of β-Catenin (β-Catenin; 600 and 800 nM): significantly decreased | expression quantity of Cyclin D1 (Cyclin D1; 100 to 400 nM): increased slightly | expression quantity of Cyclin D1 (Cyclin D1; 600 and 800 nM): significantly decreased | phosphorylation of GSK3β (p-GSK3β): significantly inhibit | expression quantity of C-myc (C-myc; 100 to 400 nM): increased slightly | expression quantity of C-myc (C-myc; 600 and 800 nM): significantly decreased

Reference: patent US11357852B2, “Diglycosylated benzophenoxazine photosensitizer and preparation method and use thereof” (The Third Xiangya Hospital of Central South University, priority 2017, dated 2022)
